Measurements published in patent publication US9226982B2, “Gall bladder imaging agent and its preparation method” (INSTITUTE OF NUCLEAR ENERGY RESEARCH ATOMIC ENERGY COUNCIL, …, priority 2012, dated 2016).
Each block holds one compound with its values, some of them ahead of it.

What was measured:
ASGPR = target: T1, ASGPR (Mus musculus, UniProt P24721+P34927); assay: Binding strength between carbohydrate chain peptide and mice liver cell (competition with Eu-ASOR, time-resolved fluorescence)
T1 construct: host or cells: mouse liver cells (hepatocytes) cultured on 24-well plates
T1 sequence (P34927 1-284): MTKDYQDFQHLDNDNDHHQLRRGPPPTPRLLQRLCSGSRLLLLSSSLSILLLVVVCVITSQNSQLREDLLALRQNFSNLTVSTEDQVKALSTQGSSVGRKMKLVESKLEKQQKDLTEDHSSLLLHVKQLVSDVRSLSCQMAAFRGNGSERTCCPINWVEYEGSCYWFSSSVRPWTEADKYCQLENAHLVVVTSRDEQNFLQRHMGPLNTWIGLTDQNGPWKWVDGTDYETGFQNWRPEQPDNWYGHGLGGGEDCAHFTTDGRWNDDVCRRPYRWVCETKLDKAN
T1 sequence (P24721 1-301): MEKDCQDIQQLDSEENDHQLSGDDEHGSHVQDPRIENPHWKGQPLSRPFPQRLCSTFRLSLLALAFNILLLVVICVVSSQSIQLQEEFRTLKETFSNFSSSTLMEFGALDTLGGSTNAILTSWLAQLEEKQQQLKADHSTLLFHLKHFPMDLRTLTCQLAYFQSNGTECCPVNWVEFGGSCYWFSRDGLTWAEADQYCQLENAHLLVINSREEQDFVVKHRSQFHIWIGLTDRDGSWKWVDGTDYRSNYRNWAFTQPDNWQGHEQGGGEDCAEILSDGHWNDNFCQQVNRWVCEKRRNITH
Excerpt: The binding strength between carbohydrate chain peptide and a mice liver cell uses Eu-asialo-orosomucoid (Eu-ASOR) as a reference substance and compares whether carbohydrate chain peptides such as DCM-Lys(ah-GalNAc)3, […] larger binding capacity to a mice liver cell than Eu-ASOR. IC50 (50% inhibitory concentration) represents the binding capacity. Smaller IC50 represents larger binding capacity. Mice liver cells are purchased from Lonza biotechnology company in State of Maryland, which are placed and cultivated on a 24-well plate in advance. Reaction takes place at each well. […] Perform oscillating culture for 1 hours. Use an ammonium-chloride-containing liver cell base culture medium to wash away substances that are not bonded to liver cells. Perform time-resolved fluorescence analysis, namely, add an enhancer (15 μM of β-naphthoyl trifluoroacetone, 50 μM of tri-n-octyl-phosphine oxide, 0.1M of potassium hydrogen phthalate, and 0.1% of Triton X-100 in 0.1M of acetic acid, pH of 3.2). The enhancer forms an Eu chelate with Eu^3+ and emits light of 615 nm when energized by 340 nm. The logarithmic value of the concentration of carbohydrate chain peptide is taken as X-axis, and the emitted fluorescence value is taken as the Y-axis. […] However, the binding between DCM-Lys(Gah-GalNAc)3 and ASGPR is 10 times as large as the binding strength of YEE and YDD.

[1] = in vivo
Excerpt: Tyrosine-glutamyl-glutamic acid (YEE) and tyrosine-aspartyl-aspartic acid (YDD) are first proposed by Lee et al. (1983). Tyrosine-glutamyl-glutamyl-glutamic acid (YEEE) is an improved invention by Chen et al. (ROC Patent TW1240002, 2000). The binding force between double-chain galactose amino peptide proposed by Lee et al. in 1983 and a liver cell is 1000 times as large as that of single-chain galactose amino peptide. The binding force between triple-chain galactose amino peptide and a liver cell is 10^6 times as large as that of sing-chain galactose amino peptide. Our laboratory has synthesized DTPA-hexa-lactose with a single lysine derivative earlier, which has very high specific radioactivity with the In-111 label and has a very desirable effect of accumulation at the liver in animal experiments. However, our animal experiments have shown that In-111-DTPA-hexa-lactose stays at the liver very stably for at least half an hour, and it is actually not easy to observe changes of absorption of the gall bladder in the entire imaging process. Therefore, In-111-DTPA-hexa-lactose is suitable for use in remaining liver function test or measurement of remaining liver after liver resection, but is not very suitable for use as a gall bladder imaging agent.

- binding strength to ASGPR compared with YEE and YDD (in words) (ASGPR; compared with YEE and YDD): same binding strength as YEE and YDD
SMILES: NCCCCCC(=O)N[C@@H](CC(=O)NCCCC[C@@H](C(=O)NCCCCCCO[C@@H]1O[C@H](CO)[C@@H](O[C@@H]2O[C@H](CO)[C@H](O)[C@H](O)[C@H]2O)[C@H](O)[C@H]1O)N(CC(=O)NCCCCCCO[C@@H]1O[C@H](CO)[C@@H](O[C@@H]2O[C@H](CO)[C@H](O)[C@H](O)[C@H]2O)[C@H](O)[C@H]1O)CC(=O)NCCCCCCO[C@@H]1O[C@H](CO)[C@@H](O[C@@H]2O[C@H](CO)[C@H](O)[C@H](O)[C@H]2O)[C@H](O)[C@H]1O)C(=O)NCCCC[C@@H](C(=O)NCCCCCCO[C@@H]1O[C@H](CO)[C@@H](O[C@@H]2O[C@H](CO)[C@H](O)[C@H](O)[C@H]2O)[C@H](O)[C@H]1O)N(CC(=O)NCCCCCCO[C@@H]1O[C@H](CO)[C@@H](O[C@@H]2O[C@H](CO)[C@H](O)[C@H](O)[C@H]2O)[C@H](O)[C@H]1O)CC(=O)NCCCCCCO[C@@H]1O[C@H](CO)[C@@H](O[C@@H]2O[C@H](CO)[C@H](O)[C@H](O)[C@H]2O)[C@H](O)[C@H]1O [AHA-Asp[DCM-Lys(ahLac)3]2]

SMILES: CC(=O)N[C@H]1[C@H](OCCCCCCNC(=O)CNC(=O)CN(CC(=O)NCC(=O)NCCCCCCO[C@@H]2O[C@H](CO)[C@H](O)[C@H](O)[C@H]2NC(C)=O)[C@@H](CCCCN)C(=O)NCC(=O)NCCCCCCO[C@@H]2O[C@H](CO)[C@H](O)[C@H](O)[C@H]2NC(C)=O)O[C@H](CO)[C@H](O)[C@@H]1O [DCM-Lys(GahGalNAc)3]
- binding strength to ASGPR relative to YEE and YDD (ASGPR; compared with YEE and YDD): 10 times
- IC50 (ASGPR; mice liver cells, 10 nM Eu-ASOR as reference substance, 1 hour culture): 1 nM

SMILES: O=C(O)CN(CCN(CC(=O)O)CC(=O)O)CCN(CC(=O)O)CC(=O)NCCCCCC(=O)N[C@@H](CC(=O)NCCCC[C@@H](C(=O)NCCCCCCO[C@@H]1O[C@H](CO)[C@@H](O[C@@H]2O[C@H](CO)[C@H](O)[C@H](O)[C@H]2O)[C@H](O)[C@H]1O)N(CC(=O)NCCCCCCO[C@@H]1O[C@H](CO)[C@@H](O[C@@H]2O[C@H](CO)[C@H](O)[C@H](O)[C@H]2O)[C@H](O)[C@H]1O)CC(=O)NCCCCCCO[C@@H]1O[C@H](CO)[C@@H](O[C@@H]2O[C@H](CO)[C@H](O)[C@H](O)[C@H]2O)[C@H](O)[C@H]1O)C(=O)NCCCC[C@@H](C(=O)NCCCCCCO[C@@H]1O[C@H](CO)[C@@H](O[C@@H]2O[C@H](CO)[C@H](O)[C@H](O)[C@H]2O)[C@H](O)[C@H]1O)N(CC(=O)NCCCCCCO[C@@H]1O[C@H](CO)[C@@H](O[C@@H]2O[C@H](CO)[C@H](O)[C@H](O)[C@H]2O)[C@H](O)[C@H]1O)CC(=O)NCCCCCCO[C@@H]1O[C@H](CO)[C@@H](O[C@@H]2O[C@H](CO)[C@H](O)[C@H](O)[C@H]2O)[C@H](O)[C@H]1O [In-111-DTPA-hexa-lactose, metal not drawn]
- time it stays at the liver very stably [1]: at least half an hour
